Reference: patent US20230263807A1, “TREPROSTINIL ILOPROST COMBINATION THERAPY” (United Therapeutics Corporation, priority 2022, published 2023)
Where two headings read alike, the source gives them in different places.

Experimental: The solubility of iloprost at 100 μg/mL was evaluated at five different pH levels by visual inspection and HPLC-UV analysis. A stock solution of Iloprost was prepared in ethanol at 1 mg/mL. The stock solution was diluted 10-fold in each buffer and mixed well. The buffered solutions were visually inspected for any precipitation. The buffered solutions were filtered with 0.45 μm nylon filters prior to analysis by HPLC.

Final pH (100 μg/mL Iloprost in 10 mM Acetate, initial pH 5.00): 5.08
Final pH (100 μg/mL Iloprost in 10 mM Citrate, initial pH 2.89): 2.99
Final pH (100 μg/mL Iloprost in 10 mM Phosphate, initial pH 6.23): 6.36
Final pH (100 μg/mL Iloprost in 10 mM Phosphate, initial pH 7.27): 7.42
Final pH (100 μg/mL Iloprost in 10 mM Phosphate, initial pH 8.60): 8.59
solubility by chromatographic analysis (pH 2.89): potential solubility issues below pH 6
visual solubility (pH 2.89): No visual solubility issues
Compound: CC#CCC(C)[C@H](O)/C=C/[C@@H]1[C@H]2C/C(=C/CCCC(=O)O)C[C@H]2C[C@H]1O (stereo partly shown) [Iloprost]
